Test results reported in publication PMC9993459, “A novel selective spleen tyrosine kinase inhibitor SKI-O-703 (cevidoplenib) ameliorates lupus nephritis and serum-induced arthritis in murine models” (Clinical and Experimental Immunology, 2022).

How the values were obtained:
FGFR2 = FGFR2 (Homo sapiens, UniProt P21802); experiment: Kinase assay (LANCE Ultra TR-FRET), FGFR2; format: biochemical
Description: (§1) Kinase assays were conducted in 384-well plates using LANCE ultra 66 time-resolved fluorescence resonance energy transfer (TR-FRET) methods, according to the manufacturer’s instructions (Perkin-Elmer). In brief, each kinase was pre-incubated with a serially diluted compound for 30 min, incubated with ULight poly-GT peptide substrate and ATP for up to 1 h. Thirty minutes after adding Eu-labeled anti-phosphopeptides Ab diluted in LANCE Detection Buffer, LANCE signals were measured with an EnVision multilabel reader (Perkin-Elmer).

[1] = biological target: T1, phosphorylated Syk (p-Syk) in THP-1 cells (Homo sapiens, UniProt P43405); experiment: p-Syk ELISA in IgG-stimulated THP-1 cells (FcγR signal); format: cell-based
T1 construct: endogenous in cells; host or cells: Ramos (ATCC), THP-1 (ATCC), human CD14+ monocytes (Lonza)
Description: (§2) THP-1 and Ramos cell lines and human CD14^+ monocytes were purchased from the American Type Culture Collection (ATCC) and Lonza, respectively. After treatment with Syk inhibitors for 1 h, THP-1 cells and monocytes were stimulated for 15 min with 100 μg/ml human IgG (Invitrogen), and Ramos cells were stimulated with 2 μg/ml anti-human IgM monoclonal Ab (mAb) (Bathyl). Cells were lysed in RIPA buffer containing 1% NP-40, 1% sodium deoxycholate, 0.1% SDS, and a mixture of protease and phosphatase inhibitors (Thermo Scientific). The lysates were assayed by standard immunoblotting methods and ELISA. Primary Abs used for immunoblotting were anti-phospho-Syk ([…]), anti-phospho-Vav (Y174), anti-phospho-PLCγ1 (Y1217) and anti-phospho-BLNK (Y96) Abs (all from Cell Signaling). ELISAs to detect phospho-Syk (Y525/526) were performed according to the manufacturer’s protocol (Cell Signaling).
(§3) Ramos cells (A), human primary monocytes (B), and THP cells (C) were pretreated with inhibitors at the indicated concentrations and stimulated with anti-human IgM (A) and human IgG (B and C). […] The relative intensities of protein phosphorylation levels were quantitated with reference to each lane of β-actin control bands. (D) Ramos cells, human primary monocytes, and THP cells were treated as in A–C for 24 h and levels of phosphorylated Syk (p-Syk) were measured by ELISA.

FGFR3 = FGFR3 (Homo sapiens, UniProt P22607); experiment: Kinase assay (LANCE Ultra TR-FRET), FGFR3; format: biochemical
FGFR3, sequence (P22607 23-806, species assumed): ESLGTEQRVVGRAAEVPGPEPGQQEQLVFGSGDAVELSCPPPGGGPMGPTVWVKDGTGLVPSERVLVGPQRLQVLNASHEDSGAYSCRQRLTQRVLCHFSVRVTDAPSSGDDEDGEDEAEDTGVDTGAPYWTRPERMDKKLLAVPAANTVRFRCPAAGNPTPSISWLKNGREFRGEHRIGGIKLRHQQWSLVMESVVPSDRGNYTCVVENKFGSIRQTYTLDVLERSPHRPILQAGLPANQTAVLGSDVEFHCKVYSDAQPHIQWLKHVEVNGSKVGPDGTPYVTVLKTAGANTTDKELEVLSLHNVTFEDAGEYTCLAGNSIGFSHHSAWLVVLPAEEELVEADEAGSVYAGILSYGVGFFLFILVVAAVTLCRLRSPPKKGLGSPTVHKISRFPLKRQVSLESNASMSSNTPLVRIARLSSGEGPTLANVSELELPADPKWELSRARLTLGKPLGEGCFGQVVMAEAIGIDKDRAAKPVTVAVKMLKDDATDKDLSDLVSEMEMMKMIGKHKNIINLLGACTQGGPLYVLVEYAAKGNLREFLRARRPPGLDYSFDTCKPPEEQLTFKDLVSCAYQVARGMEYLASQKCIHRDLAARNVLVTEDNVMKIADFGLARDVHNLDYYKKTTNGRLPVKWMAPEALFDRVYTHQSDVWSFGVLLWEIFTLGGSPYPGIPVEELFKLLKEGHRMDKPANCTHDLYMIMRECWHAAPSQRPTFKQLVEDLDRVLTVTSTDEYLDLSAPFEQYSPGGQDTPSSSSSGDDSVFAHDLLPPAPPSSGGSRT
Description: as §1

FGFR1 = FGFR1 (Homo sapiens, UniProt P11362); experiment: Kinase assay (LANCE Ultra TR-FRET), FGFR1; format: biochemical
FGFR1, sequence (P11362 22-822, species assumed): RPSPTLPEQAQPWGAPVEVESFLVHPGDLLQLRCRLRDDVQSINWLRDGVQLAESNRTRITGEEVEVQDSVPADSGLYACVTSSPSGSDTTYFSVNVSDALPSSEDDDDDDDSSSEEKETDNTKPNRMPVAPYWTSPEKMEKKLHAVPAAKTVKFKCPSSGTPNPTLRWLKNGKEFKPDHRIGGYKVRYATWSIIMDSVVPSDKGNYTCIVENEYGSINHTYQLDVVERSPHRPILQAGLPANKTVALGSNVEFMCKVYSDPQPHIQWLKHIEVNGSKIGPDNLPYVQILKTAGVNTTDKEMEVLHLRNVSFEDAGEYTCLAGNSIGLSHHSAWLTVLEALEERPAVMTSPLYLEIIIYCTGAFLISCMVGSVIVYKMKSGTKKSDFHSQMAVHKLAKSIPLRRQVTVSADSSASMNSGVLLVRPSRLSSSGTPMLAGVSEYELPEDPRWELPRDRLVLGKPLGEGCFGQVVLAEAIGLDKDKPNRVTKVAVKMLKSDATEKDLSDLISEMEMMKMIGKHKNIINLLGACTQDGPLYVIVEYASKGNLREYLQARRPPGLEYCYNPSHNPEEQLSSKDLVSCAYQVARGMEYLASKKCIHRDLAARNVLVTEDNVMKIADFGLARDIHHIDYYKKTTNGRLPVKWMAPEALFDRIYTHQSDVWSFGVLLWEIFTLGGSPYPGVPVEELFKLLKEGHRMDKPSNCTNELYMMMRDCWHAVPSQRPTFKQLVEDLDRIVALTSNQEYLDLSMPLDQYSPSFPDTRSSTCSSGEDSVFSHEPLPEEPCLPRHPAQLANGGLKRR
Description: as §1

human primary B cells = experiment: IgM, IgG and IL-6 secretion by stimulated human primary B cells (ELISA); format: cell-based; conditions: TLR9 agonist plus IL-2 or IFN-α; efficacy comparable to R406
Description: Human CD19^+ B cells (Lonza) were pre-treated with inhibitors for 1 h and stimulated for 24 h with 50 nM CpG ODN 2006 plus 10 ng/ml IL-2 or 1 μM CpG ODN 2006 plus 20 ng/ml IFN-α. Culture supernatants were assayed by ELISA to detect secreted IgG, IgM, and IL-6, according to the manufacturer’s instructions.
(§4) Figure 2: in vitro effects of SKI-O -703 on the proliferation, survival, and differentiation of B cells. Mouse primary B cells were labeled with CP670, and stimulated with either anti-IgM mAb, CD40L and IL-4 (A) or LPS (B) for 72 h in the presence or absence of SKI-O-703 and tofacitinib at the indicated concentrations; they were then assayed by FACS. (C and D) Mouse primary B cells were cultured as in A and B for 24 h, stained with Annexin V and 7-AAD, and assayed by FACS. Representative FACS profiles and graphs displaying mean Annexin V-positivity are shown. (E) Human primary B cells were stimulated with CpG ODN plus IL-2 (to detect IgM and IgG) or CpG ODN 2006 plus IFN-α (to detect IL-6) in the presence or absence of inhibitors. The culture supernatants were assayed by ELISA. Graphs are expressed as % positivity relative to the controls (without inhibitor). The data are representative of 2–3 independent experiments. *P < 0.05, **P < 0.01, and ***P < 0.001, compared with vehicle control by two-tailed unpaired Students t-tests.

[2] = biological target: T2, phosphorylated Syk (p-Syk) in Ramos cells (Homo sapiens, UniProt P43405); experiment: p-Syk ELISA in anti-IgM-stimulated Ramos cells (BCR signal); format: cell-based
T2 construct: endogenous in cells; host or cells: Ramos (ATCC), THP-1 (ATCC), human CD14+ monocytes (Lonza)
Description: as §2, §3

mouse primary B cells = experiment: CP670-dilution proliferation assay, LPS-stimulated B cells; format: cell-based; conditions: 72 h
Description: Splenic CD19^+ B cells from C57BL/6 mice were sorted by MACS (Milteny Biotec), stained with 3 μM cell proliferation dye eFluor 670 (CP670; eBioscience), and cultured for 72 h in the presence of either 10 μg/ml LPS (Sigma Aldrich) or 5 μg/ml anti-mouse IgM (Jackson Immuno Research Laboratories), 10 μg/ml anti-CD40 mAb (Biolegend) and 10 ng/ml IL-4 (Peprotech), and assayed by FACS. To detect apoptotic cells, unstimulated cells were cultured for 24 h, stained with Annexin V and 7-aminoactinomycin D (7-AAD), and assayed by FACS.
as §4, with “The data are representative of 2–3 independent experiments. *P < 0.05, **P < 0.01, and ***P < 0.001, compared with vehicle control by two-tailed unpaired Students t-tests.” left out

FGFR2, sequence (P21802 22-821, species assumed): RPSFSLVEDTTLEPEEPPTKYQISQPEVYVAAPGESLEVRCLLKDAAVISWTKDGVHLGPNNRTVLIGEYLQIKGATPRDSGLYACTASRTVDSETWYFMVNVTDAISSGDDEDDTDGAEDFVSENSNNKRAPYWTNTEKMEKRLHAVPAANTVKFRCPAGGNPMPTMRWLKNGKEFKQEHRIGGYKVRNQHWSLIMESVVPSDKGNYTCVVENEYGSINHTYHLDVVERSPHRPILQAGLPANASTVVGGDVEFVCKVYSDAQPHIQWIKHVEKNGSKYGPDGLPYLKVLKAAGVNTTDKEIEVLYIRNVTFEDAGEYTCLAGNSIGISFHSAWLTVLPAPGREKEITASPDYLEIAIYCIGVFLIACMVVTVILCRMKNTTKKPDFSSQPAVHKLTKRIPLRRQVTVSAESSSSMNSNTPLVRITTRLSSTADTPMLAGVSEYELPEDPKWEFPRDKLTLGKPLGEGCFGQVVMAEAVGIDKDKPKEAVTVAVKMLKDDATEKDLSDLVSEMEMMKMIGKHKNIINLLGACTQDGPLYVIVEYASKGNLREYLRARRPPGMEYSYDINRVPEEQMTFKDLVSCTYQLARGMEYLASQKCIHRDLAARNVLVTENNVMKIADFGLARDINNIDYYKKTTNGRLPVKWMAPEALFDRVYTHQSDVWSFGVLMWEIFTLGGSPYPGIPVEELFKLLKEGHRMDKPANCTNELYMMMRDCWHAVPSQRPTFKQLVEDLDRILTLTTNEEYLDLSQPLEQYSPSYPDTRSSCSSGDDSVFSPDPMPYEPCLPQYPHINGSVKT

SMILES | Ratio to Syk (FGFR2) (FGFR2; IC50 ratio to Syk) | IC50 (FGFR2; kinase activity, TR-FRET) | IC50 [1] | Ratio to Syk (FGFR3) (FGFR3; IC50 ratio to Syk) | IC50 (FGFR3; kinase activity, TR-FRET) | Ratio to Syk (FGFR1) (FGFR1; IC50 ratio to Syk) | IC50 (FGFR1; kinase activity, TR-FRET) | Production of IgM, IgG and IL-6 (human primary B cells) | IC50 [2] | Concentration required to significantly inhibit LPS-induced proliferation (mouse primary B cells)
Cc1nn(-c2ccnc(Nc3ccc4c(c3)c(C(=O)C3CC3)cn4C)n2)cc1CN1C[C@H](O)CO1 [SKI-O-592] | >1623 | > 10 µM | 0.266 µM | 919 | 5.66 µM | 2753 | 17 µM | inhibited the production of IgM, IgG, and IL-6 | 0.282 µM | –
CS(=O)(=O)O.CS(=O)(=O)O.Cc1nn(-c2ccnc(Nc3ccc4c(c3)c(C(=O)C3CC3)cn4C)n2)cc1CN1C[C@H](O)CO1 [SKI-O-703, (S)-cyclopropyl(5-((4-(4-((4-hydroxyisoxazolidin-2-yl)methyl)-3-methyl-1H-pyrazol-1-yl)pyrimidin-2-yl)amino)-1-methyl-1H-indol-3-yl)methanone dimesylate] | – | – | – | – | – | – | – | – | – | at least 5 μM
